Experimental data reported in article PMC7108740, “Exploring the molecular structures that confer ligand selectivity for galanin type II and III receptors” (PLoS ONE, 2020).
Positions count from the first letter of the chain named. Ends that are not written are not given here.

Experiments:
Format in all cases: cell-based
[1] = biological target: T1, GALR3 single mutant Y^103F (Homo sapiens, UniProt O60755, Y103F); assay: SRE-luc luciferase assay, GALR3 Y103F; conditions: GALR3 Y^103F; SRE-luc in HEK293 Gqi cells, ligand 6 h; mean ± S.E.; SEM
T1 construct: expressed in transfected cells; host or cells: HEK293 cells stably expressing Gqi
T1 sequence (O60755 1-368 Y103F): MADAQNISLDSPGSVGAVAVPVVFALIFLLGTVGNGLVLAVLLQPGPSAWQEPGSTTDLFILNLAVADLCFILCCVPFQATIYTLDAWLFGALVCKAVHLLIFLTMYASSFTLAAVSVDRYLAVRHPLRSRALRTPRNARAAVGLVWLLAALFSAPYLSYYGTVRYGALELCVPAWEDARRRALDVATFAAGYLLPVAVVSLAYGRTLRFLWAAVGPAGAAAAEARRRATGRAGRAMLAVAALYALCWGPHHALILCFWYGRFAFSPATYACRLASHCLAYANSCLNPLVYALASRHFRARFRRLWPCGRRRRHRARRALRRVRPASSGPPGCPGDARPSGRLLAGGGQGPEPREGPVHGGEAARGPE
Source text: (§1) For domain swapping between GALR2 and GALR3, individual cDNA fragments of interest were amplified by polymerase chain reaction (PCR) with Pfu polymerase (ELPIS Biotech, Daejeon, Korea) and two specific primers, one corresponding to the 5' or 3' end of the GALR2 or GALR3 cDNA and the other to the region of overlap between the two receptors. The two resulting fragments, one from GALR2 and the other from GALR3, were subjected to a second round of PCR to generate the chimeric cDNAs. To construct single, double-, triple-, pentuple-, hextuple-, and septuple-mutant receptors, amino acids of GALR3 were substituted for the amino acids at the corresponding positions in GALR2 using PCR-based site-directed mutagenesis. All of the chimeric constructs were cloned into the pcDNA3 expression vector at HindⅢ and XbaⅠ sites. The DNA sequences of the chimeras were verified by automatic sequencing. HEK293 cells stably expressing the Gqi construct, which allows induction of Gq-dependent signaling pathways upon activation of a Gi-coupled receptor [14, 30], were maintained in Dulbecco's Modified Eagle's Medium (DMEM) in the presence of 10% fetal bovine serum and 1% penicillin and streptomycin. For all transfections, 200 ng DNA (100 ng receptor and 100 ng SRE-luc) mixed with lipofectamine 2000 was applied to 60–80% confluent cells on a multi-well plate according to the manufacturer's instructions (Invitrogen, Carlsbad, CA). For luciferase assays, HEK293 Gqi cells were seeded on 48-well plates at a density of 2.5 × 10^4 cells/well one day before transfection. […] The luciferase activity in 50 μl cell extract was determined using a luciferase assay system according to the standard protocol for the Synergy 2 Multi-Mode Microplate Reader (BioTek, Winooski, VT, USA). […] The concentrations of agonists that induced half-maximal stimulation (EC50) were calculated using the GraphPad PRISM5 software (GraphPad software, Inc., San Diego, CA). […]

[2] = biological target: T2, GALR3 double mutant L^100F, Y^103F (Homo sapiens, UniProt O60755, L100F/Y103F); assay: SRE-luc luciferase assay, GALR3 L100F,Y103F; conditions: GALR3 L^100F, SRE-luc in HEK293 Gqi cells, ligand 6 h, mean ± S.E., SEM
T2 construct: expressed in transfected cells; host or cells: HEK293 cells stably expressing Gqi
T2 sequence (O60755 1-368 L100F/Y103F): T1 sequence (O60755 1-368 Y103F) with L100F
Source text: as §1

[3] = biological target: T3, GALR3 triple mutant L^100F, Y^103F, Y^107H (Homo sapiens, UniProt O60755, L100F/Y103F/Y107H); assay: SRE-luc luciferase assay, GALR3 L100F,Y103F,Y107H; conditions: GALR3 L^100F, SRE-luc in HEK293 Gqi cells, ligand 6 h, mean ± S.E., SEM
T3 construct: expressed in transfected cells; host or cells: HEK293 cells stably expressing Gqi
T3 sequence (O60755 1-368 L100F/Y103F/Y107H): T1 sequence (O60755 1-368 Y103F) with L100F, Y107H
Source text: as §1

| Compound | EC50 [1] | EC50 [2] | EC50 [3] |
| --- | --- | --- | --- |
| NWTPQAALYLKGAQ-NH2 [A^7-SPX] | 302 ± 72.9 nM | 155 ± 45.2 nM | 64.6 ± 12.1 nM |
| NWTPNAMLYLKGAQ-NH2 [N^5-SPX] | 676 ± 127 nM | 174 ± 45 nM | 83.2 ± 26.9 nM |
| CSCC[C@H](NC(=O)[C@H](C)NC(=O)[C@H](CCC(N)=O)NC(=O)[C@@H]1CCCN1C(=O)[C@@H](NC(=O)[C@H](Cc1c[nH]c2ccccc12)NC(=O)[C@@H](N)CC(N)=O)[C@@H](C)O)C(=O)N[C@@H](CC(C)C)C(=O)N[C@@H](Cc1ccc(O)cc1)C(=O)N[C@@H](CC(C)C)C(=O)N[C@@H](CCCCN)C(=O)NCC(=O)N[C@@H](C)C(=O)N[C@@H](CCC(N)=O)C(N)=O [SPX, reference compound] | 32.4 ± 10.5 nM | 42.7 ± 9.54 nM | 30.9 ± 9.03 nM |
